In patent publication US5906831A, “Controlled release composition forming a reversed micellar (L2) structure or a normal micellar (L1) structure” (GS Development AB, priority 1994, dated 1999):

Key:
[1] = visual inspection of mixtures of monocaproin with polar solvents (miscibility); format: physicochemical
Text: Many galenic formulations of drugs contain polar solvents.

[2] = diluted water solution; cited from earlier work
[3] = all compositions, in water; cited from earlier work

- Appearance ([1]; 5% Ethanol / 5% Propylene Glycol (w/w), 90% monocaproin): clear, low viscous
- Appearance ([1]; 10% (w/w) Ethanol, 90% monocaproin): clear, low viscous
- Appearance ([1]; 10% (w/w) Propylene Glycol, 90% monocaproin): clear, low viscous
- Appearance ([1]; 90% (w/w) Ethanol, 10% monocaproin): clear, low viscous
Structure (SMILES): CCCCCC(=O)OCC(O)CO (stereo not drawn) [monocaproin, glycerolmonohexanoate]
- critical micellar concentration (cmc) [2]: 160 mM
- phase behaviour of aqueous system [3]: one single liquid phase at all compositions
